“Also recorded” adds a separate entry of the source.
Key:
[1] = test system: 9L^wt and 9L^HSV1-tk tumors; assay: Terminal transferase nick-end-labeling (TUNEL) of brain tumors; type: in vivo, mice; settings: 150 mg/kg, 6 hours post i.v. injection
Description: ApopTag® Plus In Situ Apoptosis Fluorescein Detection Kit (Millipore) was used for detecting degraded DNA fragments to evaluate apoptosis after the administration of compound 2. Six hours after i.v. administration of 2 (150 mg/kg body weight) mice were transcardially perfused with 10 mM PBS and 4% PFA for tissue fixation. Brains were fixed in 4% PFA overnight, cryopreserved in 30% sucrose, and followed by cryo-sectioning at 30 μm slices. Slices were post-fixed in ethanol: acetic acid (2:1) solution followed by the manufacture procedure for using the ApopTag® Plus In Situ Apoptosis Fluorescein Detection Kit (Millipore, […]).

[2] = In vitro CEST-MRI of thymidine analogues at 11.7 T; type: physicochemical; settings: pH 7.4, 37° C.
Description: All compounds were dissolved at a concentration of 20 mM in phosphate-buffered saline (PBS) (pH=7.4) and placed in microcapillaries, as described previously.^17 CESTMRI experiments were performed on a vertical 11.7 T scanner (Bruker Avance system) at 37° C. A modified RARE sequence (TR/TE=10 000/9.4 ms; RARE factor=16; 1 mm slice thickness; FOV=11×11 mm^2; matrix size=64×32; resolution=0.17×0.34 mm^2; and NA=2) including a magnetization transfer (MT) module ([…]) was used to acquire CEST-weighted images from −8 to +8 ppm with increments of 0.2 ppm around the water resonance, which was assigned to be at 0 ppm. Pixel-based B0 correction was used as described before using the same parameters as above except for TR=1500 ms and B1/tsat=21 Hz/500 ms, with a sweep range from −2 to +2 ppm (0.1 ppm steps). Data processing was performed using custom-written scripts in MATLAB (Mathworks). Mean CEST spectra were plotted from an ROI for each sample, after B0 correction. MTRasym=100×(S^−Aω−S^AωA/^‘−’0)/3 was computed at different offsets Aω.

HSV1-TK over m-TK = assay: Kinase assay with HEK-293FT cell extracts (293^HSV1-tk vs 293^wt); type: biochemical; settings: 5 μM substrate, 2 μL cell extract; specificity HSV1-TK over m-TK
Description: In a solid white 96-well plate, 5 μM substrate (dT, compounds 1, 2, or 3; N=4 for each substrate) and 20 μM ATP were dissolved in 48 μL of kinase reaction buffer (40 mM Tris; pH=7.5, 20 mM MgCl2, and 0.1 mg/mL BSA) followed by the addition of 2 μL of purified HSV1-TK to initiate the kinase reaction. Eight wells without substrate were included as the control reference. The plate was incubated at room temperature for 2 h, after which 50 μL of Kinase-Glo luciferase reagent (Kinase-Glo max luminescent kinase assay, Promega Inc.) was added. After […], the resulting luminescence values were recorded and used to quantify the residual ATP in the reaction. The relative phosphorylation (%) was then defined as the luminescence signal obtained after the enzymatic reaction (substrate+HSV1-TK+ATP) relative to the signal obtained from wells without substrate (HSV1-TK+ATP). For a phosphorylation assay performed on HEK-293FT lysates, 2 μL of cell extract (either ^293HSV1-tk or 293^wt cells) was used instead of purified HSV1-TK, and the assay was performed using 1 or 2 as the substrate according to the procedure described above.

[3] = Quantification of exchange rates (QUESP, Bloch equation fitting); type: physicochemical; settings: 11.7 T, pH 7.4, 37° C.
Description: Exchange rates were quantified with the saturation power dependent CEST approach (QUESP) and Bloch equation fitting (McMahon et al., Magn. Res. Med. 2006, 55, 836). For each sample, the MTRasym was measured at the imino resonance frequency for CEST saturation fields of 43, 85, 128, 170, 213, 255, 340, and 426 Hz while the saturation pulse duration was kept constant at 4000 ms. The Bloch equations were then fit numerically to these MTRasym values using MATLAB (Mathworks), and the exchange rates (kex, s^−1) were determined from the fits. Errors (95% confidence limits) were estimated using the F statistic.

293^HSV1-tk cells = assay: Cell viability assay (CellTiter-Blue); type: cell-based, human; settings: 0.5 mg/ml, 4 and 24 hours
Description: Cell viability assay was performed using CellTiter-Blue® Cell Viability Assay (Promega), which provides a fluorometric method for estimating the number of viable cells present in 96 well plate. HEK293FT cells transduced with the HSV1-tk (293^HSV1-tk) were plated in 96 well-plate (10,000 cells/well). Cells were incubated for a periods of 4 hours and 24 hours in the presence of ganciclovir (GCV, 0.5 mg/ml in cell medium), compound 2 (0.5 mg/ml in cell medium) and medium (as control). CellTiter-Blue® Reagent was added (20 μl/well) and plate was incubated for 3 hours at 37° C. Finally, fluorescence 560/590 nm was recorded and values obtained from probe containing wells (GCV or 2, N=4) were normalized to values of non-treated cells (control wells) to determine the % of viable cells after the incubation period.

[4] = at 5 ppm for 20 nM agent (so in the source)

CC1(C)CN([C@H]2C[C@H](O)[C@@H](CO)O2)C(=O)NC1=O [Compound 2, 5-Methyl-5,6-dihydrothymidine]
apoptosis (TUNEL staining) [1]: did not induce apoptosis; also recorded: do not induce apoptosis
MTRasym (8.5 Hz) [2, 4]: 4%
MTRasym (170 Hz) [2, 4]: 16%
MTRasym (213 Hz) [2, 4]: 21%
MTRasym (128 Hz) ([2]; at 5 ppm for 20 mM agent): 10%
increase in phosphorylation with respect to control extract (293^wt), factor relative to that of 1 (HSV1-TK over m-TK): about 10
kex of the imino proton [3]: 1.7±0.3×10^3 s^−1
kex, quantified exchange rates of imino and water protons ([3]; 5 ppm for 1-3, 6 ppm for dT): 1.7 ± 0.3 ×10^3 s^−1
toxic effect on 293^HSV1-tk cells (293^HSV1-tk cells): did not show any toxic effect; also recorded: no toxic effect

From US20160082133A1, “CHEMICAL EXCHANGE SATURATION TRANSFER (CEST) BASED MRI USING REPORTER GENES AND SUBSTRATES AND METHODS THEREOF” (The Johns Hopkins University, priority 2013, published 2016)
